From patent US20100150948A1, “MATERIALS AND METHODS FOR IMPROVED IMMUNOGLYCOPROTEINS” (TRUBION PHARMACEUTICALS, INC., priority 2006, published 2010)
Where “and” joins values, the source holds several entries; their conditions need not be identical. Equal entries are not always repeated.

Tests used:
[1] = system: CD16; assay: Binding to soluble FcγR-MIg fusion on WIL2-S cells, flow cytometry (allele not stated)
Protocol: The immunoglycoproteins produced according to Example 2 were assayed in vitro for binding to soluble Ig-fusion versions of Fcγ receptors, in which the extracellular domain of a receptor is fused to murine IgG2a Fc.
The soluble Fey receptor materials were generated by fusing the extracellular domain of Fcγ Receptors I (Genbank Acc. No. BC032634), IIa (Genbank Acc. No. NM_021642), IIb (Genbank Acc. No. BC031992), and III-V158 (high affinity allele) (Genbank Acc. No. X07934) and III-F158 (low affinity allele), respectively, to a murine IgG2a Fc with a Pro to Ser mutation at residue 238 (MIgG2aP238S). For both forms of Fcγ RIII (CD16), an HE4 leader was cloned onto CD16 amino acids 1-178 and then fused to MIgG2aP238S.
The assays were carried out as follows. […] The cells were then incubated with the desired FcγR-MIg fusion in the same diluent at a concentration of 1 μg/ml on ice for 45 minutes.
The complexes (WIL2-S cells/SMIP/FcγR-MIg) were then incubated with PE conjugated AffiniPure F(Ab')2 Goat Anti-Mouse IgG [Jackson Immunoresearch] (a mouse Fc-specific antibody with minimal cross reactivity with human Fc) at a 1:100 dilution. The cells were analyzed by one-color flow cytometry on a FACsCalibur using CellQuest software (Becton Dickinson).
If TRU-016 supernatants from Example 2 were used in this assay instead of purified TRU-016 protein, the SMIP concentration in the supernatant was quantified by direct staining of WIL2-S cells with diluted supernatant along with a TRU-016 standard. TRU-016 was detected by staining with FITC conjugated F(Ab')2 Goat Anti-Human (gamma) [Caltag H10101] at a 1:50 dilution.

[2] = system: CHO cells transfected with TRU-016; assay: Effect of castanospermine concentration on cell viability, density and specific protein production of TRU-016; format: cell-based, Chinese hamster; settings: for Viability at Harvest (%): harvest day 8, duplicate flasks, listed as CS
Protocol: Prior to initiation of the experiments, CHO cells transfected with TRU-016 were grown in shake flasks in Ex-Cell™ 302 CHO serum-free media (SAFC Biosciences) supplemented with 1× non-essential amino acids (MediaTech), 1× sodium pyruvate (MediaTech), 4 mM L-glutamine (MediaTech), 500 nM methotrexate (MP Biomedicals) and 1 mg/L recombinant insulin (Recombulin—GIBCO/Invitrogen Corp.) at 37° C. and 5% carbon dioxide in a humidified incubator. A 200 mM stock concentration of castanospermine (Alexis Biochemicals) was prepared by dilution of the castanospermine in sterile, distilled/deionized water (MediaTech) and filtration through a 13 mm Acrodisc® with a 0.2 μm HT Tuffryn membrane (Pall Corporation). Stock solution was aliquoted into sterile, O-ringed, 0.5 mL microcentrifuge tubes (Fisherbrand, Fisher Scientific) and frozen at −20° C. Approximately 1 hour prior to initiation of experiments, needed aliquots were thawed at room temperature and the contents of each vial mixed well by vortexing.
For each experiment, cells in log phase growth were seeded in the above medium into a total volume of 60 mL in 250 mL shaker flasks at a density of 200,000 cells/mL and CS added at the concentration to be tested. Final CS concentrations of 800 μM, 400 μM, 200 μM, 100 μM, 50 μM, 25 μM and 0 μM were each tested in duplicate flasks. All cultures were incubated at 37° C. and 5% carbon dioxide in a humidified incubator and monitored at least every other day for viable cell density and overall cell viability.
Cultures were harvested on day 8 when overall cell viability was 50-70% (Expt. 1) and 30-50% (Expt. 2). Cells and cellular debris were removed by centrifugation in a Sorvall Super T21 at 3000 rpm for 20 minutes after which the supernatant was sterile filtered through a Millipore Steriflip unit with a 0.22 μm Millipore Express Plus membrane and stored at 2-8° C. until purification.

[3] = system: Ramos B cells; assay: CDC activity, propidium iodide flow cytometry with human serum; format: cell-based; settings: TRU-016 from CHO cells cultured with 200 μM DMJ, 10 μM kifenunsine or 200 μM castanospermine
Protocol: To determine the CDC activity of TRU-016 purified protein produced according to Example 2, Ramos B cells were suspended in Iscoves (Gibco/Invitrogen, Grand Island, N.Y.) at 5×10^5 cells/well in 75 μl. TRU-016 (75 μl) were added to the cells at twice the concentrations indicated. Binding reactions were allowed to proceed for 45 minutes prior to centrifugation and washing in serum-free Iscoves. Cells were resuspended in Iscoves with human serum (containing complement) at various concentrations. The cells were incubated 60 minutes at 37° C. Cells were washed by centrifugation and resuspended in staining media with 0.5 μg/ml propidium iodide. Samples were incubated 15 minutes at room temperature in the dark prior to analysis by flow cytometry using a FACsCalibur and CellQuest software (Becton Dickinson).

[4] = system: Ramos cells; assay: Ramos tumor model in nude mice; format: in vivo; settings: TRU-016 from CHO cells treated with 200 μM DMJ, 10 μM kifenunsine or 200 μM castanospermine; 200 μg i.v.
Protocol: Nude mice are administered 5×10^6 Ramos cells subcutaneously on day 0 and injected intravenously with 200 μg control human IgG or TRU-016 test protein produced by CHO cells treated with 200 μM DMJ, 10 μM kifenunsine or 200 μM castanospermine on days 0, 2, 4, 6, and 8. Mice typically develop tumors within 6 days and die shortly thereafter. Tumors are measured three times weekly with digital calipers and LabCat software, and tumor volume is calculated as […]. Body weight is also determined once a week.
Mice are sacrificed when the tumor reaches 1500 mm^3 in size (1200 mm^3 on Fridays). Mice are also sacrificed if ulceration of a tumor occurs, the tumor inhibits the mobility of animal, or if weight loss equals or exceeds 20%.

Compound | CD16 binding (mean fluorescence intensity) of Protein A-purified TRU-016 ([1]; 0, 10, 25, 50, 100 or 200 μM castanospermine in culture media) | reduction of TRU-016 protein production ([2]; 400 μm CS) | Viability at Harvest (%) ([2]; CS 25 μM) | Viability at Harvest (%) ([2]; CS 50 μM) | Viability at Harvest (%) ([2]; CS 100 μM) | Viability at Harvest (%) ([2]; CS 200 μM) | Viability at Harvest (%) ([2]; CS 400 μM) | Viability at Harvest (%) ([2]; CS 800 μM) | cell viability and growth as indicated by integral cell area (ICA) ([2]; CS 25-800 μM) | immunoglycoprotein production ([2]; increasing concentrations of castanospermine, 25-800 μM) | CD16 binding activity of sera containing TRU-016 ([1]; mouse sera at 48, 72, 96 and 192 hours after administration of carbohydrate-modified TRU-016) | CDC compared with protein produced by untreated CHO cells [3] | mean survival time [4] | tumor volume [4]
O[C@H]1[C@H](O)[C@@H](O)CN2CC[C@H](O)[C@H]12 [castanospermine] | dose-dependent increase | approximately 40% | 53.9% and 54.5% | 49.4% and 50.0% | 54.4% and 54.6% | 55.5% and 51.1% | 65.7% and 68.2% | 70.6% and 65.2% | did not appear to be significantly affected | appeared to reduce | – | – | – | –
TRU-016: recombinant single chain protein (SMIP) that binds CD37; G28-1 binding domain, modified hinge, human IgG1 CH2 and CH3; SEQ ID NO: 2 | – | – | – | – | – | – | – | – | – | – | retained its increased CD16 binding activity | similar | increase mean survival time | reduce tumor volume
